Experimental data as given in patent US20240368191A1, “HETEROCYCLIC COMPOUNDS AND USES THEREOF” (Kumquat Biosciences Inc., priority 2021, published 2024).

Columns and labels:
in vitro = conditions: microsomes, pH 7.4
Description: (§1) The metabolic stability of a test compound is assayed at 37° C. using pooled liver microsomes (mouse or human liver microsomes). An aliquot of 10 μL of 50 μM test compound is mixed with 490 μL of 0.611 mg/mL liver microsomes, then 50 μL of the mixtures are dispensed to the 96 well tubes and warmed at 37° C. for 10 minutes. The reactions are initiated by adding 50 μL of the pre-warmed NADPH regeneration system solution (add 1.2 μL solution, 240 μl solution B, mix with 10.56 ml KPBS) and then incubated at 37° C. The final incubation solution contains 100 mM potassium phosphate (pH 7.4), 1.3 mM NADP+, 3.3 mM glucose 6-phosphate, 0.4 Unit/mL of glucose 6-phosphate dehydrogenase, 3.3 mM magnesium chloride, 0.3 mg/mL liver microsomes and 0.5 μM test article. After 0, 15, 30 and 60 minutes in a shaking incubator, the reactions are terminated by adding 100 μL of acetonitrile containing 200 nM buspirone as an internal standard. All incubations are conducted in duplicate. […] Samples are then centrifuged at 3500 rpm for 10 minutes (4° C.) using Sorvall Legend XRT Centrifuge (Thermo Scientific, GE). Supernatants (40 μL) are transferred into clean 96-deep well plates. Each well is added with 160 μL of ultrapure water (Milli-Q, Millipore Corporation) with 0.1% (v/v) formic acid (Fisher Chemical), mixed thoroughly and subjected to LC/MS/MS analysis in MRM positive ionization mode.
(§2) All the samples are measured using a mass spectrometer (QTrap 5500 quadrupole/ion trap) coupled with a Shimadzu HPLC system. The HPLC system consisted of a Shimadzu series degasser, binary quaternary gradient pumps, column heater coupled to an autosampler, and a Phenomenex Gemini-NX, C18, 3.0 μm or Phenomenex Lunar, C8, 5.0 μM HPLC column (Phenomenex, Torrance, CA), and eluted with a mobile phase gradient consisting of Solution A (0.1% formic acid water) and Solution B (0.1% formic acid acetonitrile). The column temperature is maintained at 40° C. All the analytes are detected with positive-mode electrospray ionization (ES+).
(§3) The half-life for the metabolic degradation of the test compound is calculated by plotting the time-course disappearance of the test compound during the incubation with liver microsomes. Each plot is fitted to a first-order equation for the elimination of the test compound (% remaining compound) versus time using non-linear regression (Equation 1).
(§4) where Ct is the mean relative substrate concentration at time t and C0 is the initial concentration (0.5 μM) at time 0. Note that the area ratio of the substrate peak to an internal standard peak is proportional to the analyte concentration and is used for regression analysis to derive a value of k.

[1] = molecular target: T1, KRAS G12D 1-169 (His-tagged, GDP-loaded) (Homo sapiens, UniProt P01116, G12D); assay: Covalent modification of KRAS protein by intact-protein LC-MS; assay type: binding; conditions: comparable or same conditions as K-Ras G12S
T1 construct: His -tagged GDP-loaded G12D 1-169; made in house; host or cells: E. coli, e.g. BL21 (DE3)
Description: Test compounds are prepared as 10 mM stock solutions in DMSO (Fisher cat #BP231-100). KRAS protein (His -tagged GDP-loaded wildtype 1-169, His -tagged GDP-loaded G12S 1-169 or His -tagged GDP-loaded G12D 1-169) is diluted to ˜2 μM in appropriate buffer (e.g., a Hepes buffer at physiological conditions). For testing KRAS modification, compounds are diluted to 50× final test concentration in DMSO in 96-well storage plates. 2 μl of the diluted 50× compounds are added to appropriate wells in the PCR plate (Fisher cat #AB-0800). ˜49 μl of the stock protein solution is added to each well of the 96-well PCR plate. Reactions are mixed carefully. The plate is sealed well with aluminum plate seal, and stored in drawer at room temperature for 24 hrs. 5 μl of 2% formic acid (Fisher cat #A117-50) in MilliQ H2O is then added to each well followed by mixing with a pipette. The plate is then resealed with aluminum seal and stored until mass spectrometry analysis.
The extent of covalent modification of KRAS proteins was determined by liquid chromatography electrospray mass spectrometry analysis of the intact proteins on a Thermo Q-Exactive Plus mass spectrometer. 20 μl of sample was injected onto a bioZen 3.6 μm Intact C4 column (Phenomenex cat #00B-4767-AN) placed in a column oven set to 40° C. and separated using a suitable LC gradient from ˜20% to ˜60% solvent B. Solvent A was 0.1% formic acid and solvent B was 0.1% formic acid in acetonitrile. HESI source settings were set to 40, 5 and 1 for the sheath, auxiliary and sweep gas flow, respectively. The spray voltage was 4 kV, and the capillary temperature was 320° C. S-lens RF level was 50 and auxiliary gas heater temperature was set to 200° C. The mass spectrometry was acquired using a scan range from 650 to 1750 m/z using positive polarity at a mass resolution of 70,000, AGC target of 1e6 ions and maximum injection time of 250 ms. The recorded protein mass spectrum was deconvoluted from the raw data file using Protein Deconvolution v4.0 (Thermo). The protein mass and adduct masses were exported with their peak intensities. The peak intensities for the unmodified and modified protein were used to calculate the percent covalent modification of the KRAS protein based on the following equation: % KRAS protein modification=((KRAS−compound)/(KRAS)+(KRAS−Compound))*100.

[2] = Metabolic (microsomal) stability assay; conditions: pooled liver microsomes, pH 7.4
Description: as §1, §2, §3, §4

T1 sequence (P01116 1-169 isoform P01116-2 G12D): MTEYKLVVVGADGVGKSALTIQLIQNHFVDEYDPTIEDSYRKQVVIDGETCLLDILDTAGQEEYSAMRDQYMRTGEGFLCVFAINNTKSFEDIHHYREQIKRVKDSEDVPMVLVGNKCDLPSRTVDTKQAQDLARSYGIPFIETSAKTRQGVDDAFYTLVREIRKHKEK

N#Cc1cnn(C(=O)N2C3CCC2CN(c2nc(OC[C@@]45CCCN4C[C@H](F)C5)nc4c(F)c(-c5ccc(F)c6sc(N)nc56)c(Cl)cc24)C3)c1 [Compound A253, 1-(3-(7-(2-amino-7-fluorobenzo-[d]thiazol-4-yl)-6-chloro-8-fluoro-2-(((2R,7aS)-2-fluoro-tetrahydro-1H-pyrrolizin-7a(5H)-yl)methoxy)quinazolin-4-yl)-3,8-diazabicyclo[3.2.1]-octane-8-carbonyl)-1H-pyrazole-4-carbonitrile] gave a half-life at 0.5 μM (in vitro) of over 10 min.
With Cc1ncn(C(=O)N2CC3(C2)CN(c2nc(OC[C@@]45CCCN4C[C@H](F)C5)nc4c(F)c(-c5ccc(F)c6sc(N)c(C#N)c56)c(Cl)cc24)CCO3)n1 [Compound A148, 2-amino-4-(6-chloro-8-fluoro-2-(((2R,7aS)-2-fluorotetrahydro-1H-pyrrolizin-7a(5H)-yl)-methoxy)-4-(2-(3-methyl-1H-1,2,4-triazole-1-carbonyl)-5-oxa-2,8-diazaspiro[3.5]nonan-8-yl)quinazolin-7-yl)-7-fluoro-benzo[b]thiophene-3-carbonitrile] the “covalent labeling of K-Ras G12D” value [1] was “essentially no detectable labeling” and the half-life at 0.5 μM [2] was over 10 min.
In the case of CC1(C)CN(c2nc(OC[C@@]34CCCN3C[C@H](F)C4)nc3c(F)c(-c4ccc(F)c5sc(N)c(C#N)c45)c(Cl)cc23)CC2(CN(C(=O)n3cncn3)C2)O1 [Compound A296, 2-amino-4-(6-chloro-4-(6,6-dimethyl-2-(1H-1,2,4-triazole-1-carbonyl)-5-oxa-2,8-diaza-spiro[3.5]nonan-8-yl)-8-fluoro-2-(((2R,7aS)-2-fluorotetrahydro-1H-pyrrolizin-7a(5H)-yl)meth-oxy)quinazolin-7-yl)-7-fluoro-benzo[b]thiophene-3-carbonitrile], the “covalent labeling of K-Ras G12D” value [1] is reported as “essentially no detectable labeling” and the half-life at 0.5 μM [2] is reported as over 10 min.
With Nc1nc2c(-c3c(Cl)cc4c(N5CCOC6(CCN(C(=O)n7cncn7)C6)C5)nc(OC[C@@]56CCCN5C[C@H](F)C6)nc4c3F)ccc(F)c2s1 (stereo partly drawn) [Compound A221, (9-(7-(2-amino-7-fluorobenzo-[d]thiazol-4-yl)-6-chloro-8-fluoro-2-(((2R,7aS)-2-fluoro-tetrahydro-1H-pyrrolizin-7a(5H)-yl)methoxy)quinazolin-4-yl)-6-oxa-2,9-diazaspiro[4.5]-decan-2-yl)(1H-1,2,4-triazol-1-yl)methanone] the “covalent labeling of K-Ras G12D” value [1] was “essentially no detectable labeling” and the half-life at 0.5 μM [2] was over 10 min.
For CN(C)C1CN(c2nc(N3CCOC4(CN(C(=O)n5cncn5)C4)C3)c3cc(Cl)c(-c4ccc(F)c5sc(N)c(C#N)c45)c(F)c3n2)C1 [Compound A256, 4-(4-(2-(1H-1,2,4-triazole-1-carbonyl)-5-oxa-2,8-diazaspiro[3.5]nonan-8-yl)-6-chloro-2-(3-(dimethylamino)azetidin-1-yl)-8-fluoroquinazolin-7-yl)-2-amino-7-fluorobenzo[b]thiophene-3-carbonitrile], the “covalent labeling of K-Ras G12D” value [1] was “essentially no detectable labeling” and the half-life at 0.5 μM [2] was over 10 min.
With CN1CCC[C@H]1COc1nc(N2CCOC3(CN(C(=O)n4cncn4)C3)C2)c2cc(Cl)c(-c3ccc(F)c4sc(N)c(C#N)c34)c(F)c2n1 [Compound A182, 4-(4-(2-(1H-1,2,4-triazole-1-carbonyl)-5-oxa-2,8-diazaspiro-[3.5]nonan-8-yl)-6-chloro-8-fluoro-2-(((S)-1-methylpyrrol-idin-2-yl)methoxy)quinazolin-7-yl)-2-amino-7-fluorobenzo-[b]thiophene-3-carbonitrile] the “covalent labeling of K-Ras G12D” value [1] was “essentially no detectable labeling” and the half-life at 0.5 μM [2] was over 10 min.
In the case of Cc1ncn(C(=O)N2CC3(CCCN(c4nc(OC[C@@]56CCCN5C[C@H](F)C6)nc5c(F)c(-c6ccc(F)c7sc(N)c(C#N)c67)c(Cl)cc45)C3)C2)n1 [Compound A102, 2-amino-4-(6-chloro-8-fluoro-2-(((2R,7aS)-2-fluorotetrahydro-1H-pyrrolizin-7a(5H)-yl)meth-oxy)-4-(2-(3-methyl-1H-1,2,4-triazole-1-carbonyl)-2,6-diaza-spiro[3.5]nonan-6-yl)quinazo-lin-7-yl)-7-fluorobenzo[b]-thiophene-3-carbonitrile], the “covalent labeling of K-Ras G12D” value [1] is reported as “essentially no detectable labeling” and the half-life at 0.5 μM [2] is reported as over 10 min.
With N#Cc1c(N)sc2c(F)ccc(-c3c(Cl)cc4c(O[C@@H]5CCN(C(=O)n6cncn6)C5)nc(OCC56CCCN5C[C@H](F)C6)nc4c3F)c12 (stereo partly drawn) [Compound A213, 4-(4-(((R)-1-(1H-1,2,4-triazole-1-carbonyl)pyrrolidin-3-yl)oxy)-6-chloro-8-fluoro-2-(((2R)-2-fluorotetrahydro-1H-pyrrolizin-7a(5H)-yl)methoxy)quinazolin-7-yl)-2-amino-7-fluorobenzo-[b]thiophene-3-carbonitrile] the “covalent labeling of K-Ras G12D” value [1] was “essentially no detectable labeling” and the half-life at 0.5 μM [2] was over 10 min.
For C[C@H](Oc1nc(N2CCCCC3(CN(C(=O)n4cncn4)C3)C2)c2cc(Cl)c(-c3ccc(F)c4sc(N)c(C#N)c34)c(F)c2n1)[C@@H]1CCCN1C [Compound A219, 4-(4-(2-(1H-1,2,4-triazole-1-carbonyl)-2,6-diazaspiro[3.6]-decan-6-yl)-6-chloro-8-fluoro-2-((S)-1-((S)-1-methylpyrrol-idin-2-yl)ethoxy)quinazolin-7-yl)-2-amino-7-fluorobenzo-[b]thiophene-3-carbonitrile], the “covalent labeling of K-Ras G12D” value [1] was “essentially no detectable labeling” and the half-life at 0.5 μM [2] was over 10 min.
In the case of Nc1nc2c(-c3c(Cl)cc4c(N5CCCC6(CN(C(=O)n7cncn7)C6)C5)nc(OC[C@@]56CCCN5C[C@H](F)C6)nc4c3F)ccc(F)c2s1 [Compound A136, (6-(7-(2-amino-7-fluorobenzo-[d]thiazol-4-yl)-6-chloro-8-fluoro-2-(((2R,7aS)-2-fluoro-tetrahydro-1H-pyrrolizin-7a(5H)-yl)methoxy)quinazolin-4-yl)-2,6-diazaspiro[3.5]nonan-2-yl)(1H-1,2,4-triazol-1-yl)-methanone], the half-life at 0.5 μM [2] is reported as over 10 min.
For N#Cc1c(N)sc2c(F)ccc(-c3c(Cl)cc4c(N5CCC6C5CCCN6C(=O)n5cncn5)nc(OC[C@@]56CCCN5C[C@H](F)C6)nc4c3F)c12 (stereo partly drawn) [Compound A181, 4-(4-(4-(1H-1,2,4-triazole-1-carbonyl)octahydro-1H-pyrrolo[3,2-b]pyridin-1-yl)-6-chloro-8-fluoro-2-(((2R,7aS)-2-fluorotetrahydro-1H-pyrrol-izin-7a(5H)-yl)methoxy)quin-azolin-7-yl)-2-amino-7-fluoro-benzo[b]thiophene-3-carbonitrile], the half-life at 0.5 μM [2] was over 10 min.
N#Cc1c(N)sc2c(F)ccc(-c3c(Cl)cc4c(N5CC6CCCN(C(=O)n7cncn7)C6C5)nc(OC[C@@]56CCCN5C[C@H](F)C6)nc4c3F)c12 (stereo partly drawn) [Compound A284, 4-(4-(1-(1H-1,2,4-triazole-1-carbonyl)octahydro-6H-pyrrolo-[3,4-b]pyridin-6-yl)-6-chloro-8-fluoro-2-(((2R,7aS)-2-fluoro-tetrahydro-1H-pyrrolizin-7a(5H)-yl)methoxy)quinazolin-7-yl)-2-amino-7-fluorobenzo-[b]thiophene-3-carbonitrile] gave a half-life at 0.5 μM [2] of over 10 min.
Molecule Cc1ncn(C(=O)N2CCCC(Oc3nc(OC[C@@]45CCCN4C[C@H](F)C5)nc4c(F)c(-c5ccc(F)c6sc(N)c(C#N)c56)c(Cl)cc34)CC2)n1 (stereo partly drawn) [Compound A174, 2-amino-4-(6-chloro-8-fluoro-2-(((2R,7aS)-2-fluorotetra-hydro-1H-pyrrolizin-7a(5H)-yl)methoxy)-4-((1-(3-methyl-1H-1,2,4-triazole-1-carbonyl)-azepan-4-yl)oxy)quinazolin-7-yl)-7-fluorobenzo[b]thiophene-3-carbonitrile] has a half-life at 0.5 μM [2] of over 10 min.
For N#Cc1c(N)sc2c(F)ccc(-c3c(Cl)cc4c(N5CCC6(CN(C(=O)n7cncn7)C6)C5)nc(OC[C@@]56CCCN5C[C@H](F)C6)nc4c3F)c12 [Compound A277, 4-(4-(2-(1H-1,2,4-triazole-1-carbonyl)-2,6-diazaspiro[3.4]-octan-6-yl)-6-chloro-8-fluoro-2-(((2R,7aS)-2-fluorotetrahydro-1H-pyrrolizin-7a(5H)-yl)meth-oxy)quinazolin-7-yl)-2-amino-7-fluorobenzo[b]thiophene-3-carbonitrile], the half-life at 0.5 μM [2] was over 10 min.
